Values after ≈ are worked out from the molar mass of the structure shown.
Key:
Experiment in all cases: Anti-microbial activity test in vitro (agar dilution MIC)
S. aureus ATCC 29213 = type: cell-based; conditions: Agar Dilution method, Mueller Hinton Agar, 18 hours at 37° C.
How it was run: (§1)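 Visual endpoint: minimum inhibitory concentration (μg/ml) by agar dilution, Mueller Hinton medium, twofold steps, 18 h at 37 °C.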

S. pyogenes C6012 = type: cell-based; conditions: S. pyogenes C6012; Agar Dilution method, Mueller Hinton Agar, 18 hours at 37° C.
How it was run: as §1

S. epidermidis C2235 = type: cell-based; conditions: S. epidermidis C2235; Agar Dilution method, Mueller Hinton Agar, 18 hours at 37° C.
How it was run: as §1

S. pyogenes ATCC8668 = type: cell-based; conditions: S. pyogenes ATCC8668; Agar Dilution method, Mueller Hinton Agar, 18 hours at 37° C.
How it was run: as §1

S. pyogenes C6003 = type: cell-based; conditions: S. pyogenes C6003; Agar Dilution method, Mueller Hinton Agar, 18 hours at 37° C.
How it was run: as §1

E. faecalis C6288 = type: cell-based; conditions: E. faecalis C6288; Agar Dilution method, Mueller Hinton Agar, 18 hours at 37° C.
How it was run: as §1

E. faecalis C6291 = type: cell-based; conditions: E. faecalis C6291; Agar Dilution method, Mueller Hinton Agar, 18 hours at 37° C.
How it was run: as §1

S. epidermidis ATCC12228 = type: cell-based; conditions: S. epidermidis ATCC12228; Agar Dilution method, Mueller Hinton Agar, 18 hours at 37° C.
How it was run: as §1

E. faecalis ATCC29212 = type: cell-based; conditions: E. faecalis ATCC29212; Agar Dilution method, Mueller Hinton Agar, 18 hours at 37° C.
How it was run: as §1

E. faecium C6301 = type: cell-based; conditions: E. faecium C6301; Agar Dilution method, Mueller Hinton Agar, 18 hours at 37° C.
How it was run: as §1

E. faecium C2252 = type: cell-based; conditions: E. faecium C2252; Agar Dilution method, Mueller Hinton Agar, 18 hours at 37° C.
How it was run: as §1

S. epidermidis C2230 = type: cell-based; conditions: S. epidermidis C2230; Agar Dilution method, Mueller Hinton Agar, 18 hours at 37° C.
How it was run: as §1

VRE C6488 = type: cell-based, Enterococcus faecium; conditions: VRE C6488; Agar Dilution method, Mueller Hinton Agar, 18 hours at 37° C.
How it was run: as §1

VRE C6487 = type: cell-based, Enterococcus faecium; conditions: VRE C6487; Agar Dilution method, Mueller Hinton Agar, 18 hours at 37° C.
How it was run: as §1

MRSA C5100 = type: cell-based, Staphylococcus aureus; conditions: MRSA C5100; Agar Dilution method, Mueller Hinton Agar, 18 hours at 37° C.
How it was run: as §1

MSSA C7142 = type: cell-based, Staphylococcus aureus; conditions: MSSA C7142; Agar Dilution method, Mueller Hinton Agar, 18 hours at 37° C.
How it was run: as §1

MRSA C2207 = type: cell-based, Staphylococcus aureus; conditions: MRSA C2207; Agar Dilution method, Mueller Hinton Agar, 18 hours at 37° C.
How it was run: as §1

MRSA C6068 = type: cell-based, Staphylococcus aureus; conditions: MRSA C6068; Agar Dilution method, Mueller Hinton Agar, 18 hours at 37° C.
How it was run: as §1

CRSA C1062 = type: cell-based, Staphylococcus aureus; conditions: CRSA C1062; Agar Dilution method, Mueller Hinton Agar, 18 hours at 37° C.
How it was run: as §1

MSSA C2214 = type: cell-based, Staphylococcus aureus; conditions: MSSA C2214; Agar Dilution method, Mueller Hinton Agar, 18 hours at 37° C.
How it was run: as §1

CRSA C6043 = type: cell-based, Staphylococcus aureus; conditions: CRSA C6043; Agar Dilution method, Mueller Hinton Agar, 18 hours at 37° C.
How it was run: as §1

Minimum inhibition concentration (MIC) (S. aureus ATCC 29213) [µg/mL] | Minimum inhibition concentration (MIC) (S. pyogenes C6012) [µg/mL] | Minimum inhibition concentration (MIC) (S. epidermidis C2235) [µg/mL] | Minimum inhibition concentration (MIC) (S. pyogenes ATCC8668) [µg/mL] | Minimum inhibition concentration (MIC) (S. pyogenes C6003) [µg/mL] | Minimum inhibition concentration (MIC) (E. faecalis C6288) [µg/mL] | Minimum inhibition concentration (MIC) (E. faecalis C6291) [µg/mL] | Minimum inhibition concentration (MIC) (S. epidermidis ATCC12228) [µg/mL] | Minimum inhibition concentration (MIC) (E. faecalis ATCC29212) [µg/mL] | Minimum inhibition concentration (MIC) (E. faecium C6301) [µg/mL] | Minimum inhibition concentration (MIC) (E. faecium C2252) [µg/mL] | Minimum inhibition concentration (MIC) (S. epidermidis C2230) [µg/mL] | Minimum inhibition concentration (MIC) (VRE C6488) [µg/mL] | Minimum inhibition concentration (MIC) (VRE C6487) [µg/mL] | Minimum inhibition concentration (MIC) (MRSA C5100) [µg/mL] | Minimum inhibition concentration (MIC) (MSSA C7142) [µg/mL] | Minimum inhibition concentration (MIC) (MRSA C2207) [µg/mL] | Minimum inhibition concentration (MIC) (MRSA C6068) [µg/mL] | Minimum inhibition concentration (MIC) (CRSA C1062) [µg/mL] | Minimum inhibition concentration (MIC) (MSSA C2214) [µg/mL] | Compound | also measured
32 (≈ 70.5 µM) | 8 (≈ 17.6 µM) | 4 (≈ 8.81 µM) | 2 (≈ 4.41 µM) | 2 (≈ 4.41 µM) | 8 (≈ 17.6 µM) | 4 (≈ 8.81 µM) | 2 (≈ 4.41 µM) | 8 (≈ 17.6 µM) | 2 (≈ 4.41 µM) | 4 (≈ 8.81 µM) | 4 (≈ 8.81 µM) | 4 (≈ 8.81 µM) | 2 (≈ 4.41 µM) | 16 (≈ 35.3 µM) | 8 (≈ 17.6 µM) | 16 (≈ 35.3 µM) | 16 (≈ 35.3 µM) | 16 (≈ 35.3 µM) | 8 (≈ 17.6 µM) | CCOC(=O)C(Cl)=C1CCN(c2ccc(N3C[C@H](CNC(C)=O)OC3=O)cc2F)CC1 [Compound 15, N-[[(5S)-3-[3-fluoro-4-((4-(1-ethoxycarbonyl-1-chloro)-methylidene)piperidinyl)phenyl]-2-oxo-5-oxazolidinyl]methyl]acetamide] | Minimum inhibition concentration (MIC) (CRSA C6043): 16 µg/mL (≈ 35.3 µM)
2 (≈ 5.18 µM) | 2 (≈ 5.18 µM) | 2 (≈ 5.18 µM) | 2 (≈ 5.18 µM) | 0.5 (≈ 1.29 µM) | 2 (≈ 5.18 µM) | 2 (≈ 5.18 µM) | 0.5 (≈ 1.29 µM) | 2 (≈ 5.18 µM) | 2 (≈ 5.18 µM) | 2 (≈ 5.18 µM) | 2 (≈ 5.18 µM) | 1 (≈ 2.59 µM) | 0.5 (≈ 1.29 µM) | 2 (≈ 5.18 µM) | 2 (≈ 5.18 µM) | 2 (≈ 5.18 µM) | 2 (≈ 5.18 µM) | 2 (≈ 5.18 µM) | 2 (≈ 5.18 µM) | CC(=O)NC[C@H]1CN(c2ccc(N3CCC(=C(C)C#N)CC3)c(F)c2)C(=O)O1 [Compound 16, N-[[(5S)-3-[3-fluoro-4-(4-(1-cyanoethylidene)piperidinyl)-phenyl]-2-oxo-5-oxazolidinyl]methyl]acetamide] | Minimum inhibition concentration (MIC) (CRSA C6043): 2 µg/mL (≈ 5.18 µM)
16 (≈ 38.2 µM) | 2 (≈ 4.78 µM) | 8 (≈ 19.1 µM) | 2 (≈ 4.78 µM) | 8 (≈ 19.1 µM) | 8 (≈ 19.1 µM) | 8 (≈ 19.1 µM) | 2 (≈ 4.78 µM) | 16 (≈ 38.2 µM) | 8 (≈ 19.1 µM) | 8 (≈ 19.1 µM) | 16 (≈ 38.2 µM) | 4 (≈ 9.56 µM) | 4 (≈ 9.56 µM) | 8 (≈ 19.1 µM) | 16 (≈ 38.2 µM) | 16 (≈ 38.2 µM) | 8 (≈ 19.1 µM) | 32 (≈ 76.5 µM) | 16 (≈ 38.2 µM) | CON=C(C)C=C1CCN(c2ccc(N3C[C@H](CNC(C)=O)OC3=O)cc2F)CC1 [Compound 21, N-[[(5S)-3-[3-fluoro-4-(4-(2-methoxyiminopropylidene)-piperidinyl)phenyl]-2-oxo-5-oxazolidinyl]methyl]acetamide] | Minimum inhibition concentration (MIC) (CRSA C6043): 16 µg/mL (≈ 38.2 µM)
8 (≈ 19.8 µM) | 1 (≈ 2.47 µM) | 2 (≈ 4.95 µM) | 1 (≈ 2.47 µM) | 2 (≈ 4.95 µM) | 2 (≈ 4.95 µM) | 4 (≈ 9.89 µM) | 1 (≈ 2.47 µM) | 4 (≈ 9.89 µM) | 4 (≈ 9.89 µM) | 4 (≈ 9.89 µM) | 4 (≈ 9.89 µM) | 4 (≈ 9.89 µM) | 4 (≈ 9.89 µM) | 4 (≈ 9.89 µM) | 4 (≈ 9.89 µM) | 4 (≈ 9.89 µM) | 4 (≈ 9.89 µM) | 4 (≈ 9.89 µM) | 8 (≈ 19.8 µM) | CON=CC=C1CCN(c2ccc(N3C[C@H](CNC(C)=O)OC3=O)cc2F)CC1 [Compound 19, N-[[(5S)-3-[3-fluoro-4-(4-(2-methoxyiminoethylidene)-piperidinyl)phenyl]-2-oxo-5-oxazolidinyl]methyl]acetamide] | Minimum inhibition concentration (MIC) (CRSA C6043): 4 µg/mL (≈ 9.89 µM)
16 (≈ 38.1 µM) | 2 (≈ 4.77 µM) | 4 (≈ 9.54 µM) | 2 (≈ 4.77 µM) | 8 (≈ 19.1 µM) | 8 (≈ 19.1 µM) | 8 (≈ 19.1 µM) | 2 (≈ 4.77 µM) | 8 (≈ 19.1 µM) | 8 (≈ 19.1 µM) | 8 (≈ 19.1 µM) | 8 (≈ 19.1 µM) | 8 (≈ 19.1 µM) | 8 (≈ 19.1 µM) | 8 (≈ 19.1 µM) | 16 (≈ 38.1 µM) | 8 (≈ 19.1 µM) | 8 (≈ 19.1 µM) | 8 (≈ 19.1 µM) | 16 (≈ 38.1 µM) | CCOC(=O)C=C1CCN(c2ccc(N3C[C@H](CNC(C)=O)OC3=O)cc2F)CC1 [Compound 11, N-[[(5S)-3-[3-fluoro-4-(4-ethoxycarbonylmethylidene-piperidinyl)phenyl]-2-oxo-5-oxazolidinyl]methyl]acetamide] | Minimum inhibition concentration (MIC) (CRSA C6043): 8 µg/mL (≈ 19.1 µM)
8 (≈ 21.3 µM) | 1 (≈ 2.66 µM) | 2 (≈ 5.33 µM) | 2 (≈ 5.33 µM) | 8 (≈ 21.3 µM) | 4 (≈ 10.7 µM) | 8 (≈ 21.3 µM) | 1 (≈ 2.66 µM) | 16 (≈ 42.6 µM) | 4 (≈ 10.7 µM) | 8 (≈ 21.3 µM) | 2 (≈ 5.33 µM) | 8 (≈ 21.3 µM) | 8 (≈ 21.3 µM) | 4 (≈ 10.7 µM) | 4 (≈ 10.7 µM) | 4 (≈ 10.7 µM) | 4 (≈ 10.7 µM) | 8 (≈ 21.3 µM) | 8 (≈ 21.3 µM) | CC(=O)NC[C@H]1CN(c2ccc(N3CCC(=CC=O)CC3)c(F)c2)C(=O)O1 [Compound 17, N-[[(5S)-3-[3-fluoro-4-(4-(2-oxoethylidene)piperidinyl)-phenyl]-2-oxo-5-oxazolidinyl]methyl]acetamide] | Minimum inhibition concentration (MIC) (CRSA C6043): 4 µg/mL (≈ 10.7 µM)

From patent US20040087633A1, “Methylidene oxazolidinone compound and preparation method thereof” (Korea Institute of Science and Technology, priority 2002, published 2004)
